Reference: ChEMBL document CHEMBL6078642, “Design, Synthesis, and Activity Evaluation of BRD4 PROTAC Based on Alkenyl Oxindole-DCAF11 Pair” (J Med Chem, 2024)
Active and inactive are the calls of the source. No cut-off for these calls is given here.

Legend:
MDA-MB-231 = assay: Antiproliferative activity against human MDA-MB-231 cells assessed as reduction in cell viability incubated for 2 days by CCK8 assay; assay type: functional, cell-based; settings: MDA-MB-231, 48 h
MDA-MB-468 = assay: Antiproliferative activity against human MDA-MB-468 cells assessed as reduction in cell viability incubated for 2 days by CCK8 assay; assay type: functional, cell-based; settings: MDA-MB-468, 48 h
HEK293T = assay: Induction of BRD4 BD1 domain (unknown origin) degradation expressed in DCAF11 knockout HEK293T cells assessed as decrease in red fluorescence at 1 uM incubated for 12 hrs by dual fluorescence reporter cell based high content imaging analysis; settings: Homo sapiens
DCAF11-BRD4 [1] = target: T1, DCAF11-BRD4 (Homo sapiens, UniProt O60885+Q8TEB1); assay: PROTAC activity at DCAF11/BRD4 BD1 domain (unknown origin) expressed in HEK293T cells assessed as induction of BRD4 degradation at 1 uM incubated for 12 hrs by Dual fluorescence reporter cell high content imaging analysis relative to control; assay type: cell-based
DCAF11-BRD4 [2] = target: T1, DCAF11-BRD4; assay: PROTAC activity at DCAF11/BRD4 in human MDA-MB-231 cells assessed as induction of BRD4 degradation at 10 to 100 nM incubated for 1 hrs by immunoblot analysis; assay type: cell-based; settings: dose 10-100 nM

T1 sequence (Q8TEB1 whole entry, looked up, other chains not shown, the tested form may be a part): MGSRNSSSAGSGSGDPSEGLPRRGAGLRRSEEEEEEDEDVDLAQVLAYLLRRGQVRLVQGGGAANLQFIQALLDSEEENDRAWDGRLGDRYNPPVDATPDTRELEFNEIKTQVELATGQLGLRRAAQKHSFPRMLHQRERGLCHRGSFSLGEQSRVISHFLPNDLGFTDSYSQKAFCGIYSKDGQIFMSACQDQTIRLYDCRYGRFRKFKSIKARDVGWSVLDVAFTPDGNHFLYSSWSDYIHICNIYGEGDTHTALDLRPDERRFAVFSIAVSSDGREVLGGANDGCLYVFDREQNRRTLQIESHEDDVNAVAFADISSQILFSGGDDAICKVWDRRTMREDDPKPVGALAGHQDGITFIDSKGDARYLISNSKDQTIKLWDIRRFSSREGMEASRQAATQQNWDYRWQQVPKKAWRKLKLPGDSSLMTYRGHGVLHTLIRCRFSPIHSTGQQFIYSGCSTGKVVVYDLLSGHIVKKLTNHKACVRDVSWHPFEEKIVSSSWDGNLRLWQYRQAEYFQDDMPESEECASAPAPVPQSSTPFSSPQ

Row | SMILES | IC50 (MDA-MB-231) [µM] | IC50 (MDA-MB-468) [µM] | Activity (DCAF11-BRD4 [1]) [%] | Activity (DCAF11-BRD4 [2]) | Activity (HEK293T)
1 | Cc1ncsc1-c1ccc(CNC(=O)[C@@H]2C[C@@H](O)CN2C(=O)[C@@H](NC(=O)COCCOCCOCCNC(=O)C[C@@H]2N=C(c3ccc(Cl)cc3)c3c(sc(C)c3C)-n3c(C)nnc32)C(C)(C)C)cc1 | 0.02 | 1.2 | – | – | –
2 | Cc1sc2c(c1C)C(c1ccc(Cl)cc1)=N[C@@H](CC(=O)NCCCOCCOCCOCCCNC(=O)COc1ccc(Br)cc1/C=C1\C(=O)Nc3cc(C(F)(F)F)ccc31)c1nnc(C)n1-2 | – | – | – | – | inactive
3 | Cc1sc2c(c1C)C(c1ccc(Cl)cc1)=N[C@@H](CC(=O)NCCCOCCOCCOCCCNC(=O)c1ccsc1/C=C1/C(=O)Nc3cc(C(F)(F)F)ccc31)c1nnc(C)n1-2 | – | – | – | – | inactive
4 | Cc1sc2c(c1C)C(c1ccc(Cl)cc1)=N[C@@H](CC(=O)NCCCOc1c(Br)cc(Br)c(/C=C3/C(=O)Nc4cc(C(F)(F)F)ccc43)c1Br)c1nnc(C)n1-2 | – | – | – | – | inactive
5 | Cc1sc2c(c1C)C(c1ccc(Cl)cc1)=N[C@@H](CC(=O)NCCCOc1ccc(Br)cc1/C=C1/C(=O)Nc3cc(C(F)(F)F)ccc31)c1nnc(C)n1-2 | – | – | > 35 | – | inactive
6 | Cc1sc2c(c1C)C(c1ccc(Cl)cc1)=N[C@@H](CC(=O)NCCCOc1cccc(/C=C3/C(=O)Nc4cc(C(F)(F)F)ccc43)c1)c1nnc(C)n1-2 | – | – | > 35 | – | inactive
7 | Cc1ccc(OCC(=O)NCCCOCCOCCOCCCNC(=O)C[C@@H]2N=C(c3ccc(Cl)cc3)c3c(sc(C)c3C)-n3c(C)nnc32)c(/C=C2\C(=O)Nc3ccc(Br)cc32)c1 (stereo in doubt) | – | – | > 35 | – | inactive
8 | Cc1ccc(OCC(=O)NCCCOCCOCCOCCCNC(=O)C[C@@H]2N=C(c3ccc(Cl)cc3)c3c(sc(C)c3C)-n3c(C)nnc32)c(/C=C2\C(=O)Nc3ccc(Cl)cc32)c1 (stereo in doubt) | – | – | > 35 | Active | inactive
9 | Cc1ccc(OCC(=O)NCCCOCCOCCOCCCNC(=O)C[C@@H]2N=C(c3ccc(Cl)cc3)c3c(sc(C)c3C)-n3c(C)nnc32)c(/C=C2\C(=O)Nc3ccc(F)cc32)c1 (stereo in doubt) | – | – | > 35 | Active | inactive
10 | Cc1ccc(OCC(=O)NCCOCCOCCOCCOCCNC(=O)C[C@@H]2N=C(c3ccc(Cl)cc3)c3c(sc(C)c3C)-n3c(C)nnc32)c(/C=C2/C(=O)Nc3cc(C(F)(F)F)ccc32)c1 (stereo in doubt) | – | – | > 35 | – | inactive

The next lines start with results.

Row | IC50 (MDA-MB-231) [µM] | IC50 (MDA-MB-468) [µM] | Activity (DCAF11-BRD4 [1]) [%] | Activity (DCAF11-BRD4 [2]) | SMILES | Activity (HEK293T)
11 | – | – | > 35 | Active | Cc1sc2c(c1C)C(c1ccc(Cl)cc1)=N[C@@H](CC(=O)NCCCOCCOCCOCCCNC(=O)COc1ccc(/C=C3/C(=O)Nc4cc(C(F)(F)F)ccc43)nc1)c1nnc(C)n1-2 (stereo in doubt) | inactive
12 | – | – | > 35 | Active | Cc1sc2c(c1C)C(c1ccc(Cl)cc1)=N[C@@H](CC(=O)NCCCOCCOCCOCCCNC(=O)COc1ccc(/C=C3/C(=O)Nc4ccc(Br)cc43)cc1)c1nnc(C)n1-2 (stereo in doubt) | inactive
13 | – | – | > 35 | – | Cc1sc2c(c1C)C(c1ccc(Cl)cc1)=N[C@@H](CC(=O)NCCCOCCOCCOCCCNC(=O)COc1ccc(/C=C3/C(=O)Nc4ccc(Cl)cc43)cc1)c1nnc(C)n1-2 (stereo in doubt) | –
14 | – | – | > 35 | – | Cc1sc2c(c1C)C(c1ccc(Cl)cc1)=N[C@@H](CC(=O)NCCCOCCOCCOCCCNC(=O)COc1ccc(/C=C3/C(=O)Nc4ccc(F)cc43)cc1)c1nnc(C)n1-2 (stereo in doubt) | inactive
15 | – | – | > 35 | – | Cc1sc2c(c1C)C(c1ccc(Cl)cc1)=N[C@@H](CC(=O)NCCCOc1c(Br)cc(/C=C3/C(=O)Nc4cc(C(F)(F)F)ccc43)cc1Br)c1nnc(C)n1-2 (stereo in doubt) | inactive
